According to US5821243A, “Compounds compositions and methods for treating influenza” (priority 1997, dated 1998):
Counter-ions that a name gives are not always drawn. Like-named read-outs stand apart in the source and are kept apart here.

Legend:
influenza A/WSN virus = assay: Plaque reduction in MDCK cells, influenza A/WSN
Method: (§1) Compounds were evaluated for antiviral activity against influenza A/WSN, A/Victoria and B/Lee viruses by plaque reduction in Madin Darby canine kidney (MDCK) cells. Duplicate monolayers of MDCK cells in 6 well plates were washed free of protein-containing media, infected with 50-100 plaque-forming units of virus (0.4 ml. volume), and incubated at 37° C. for 60 minutes. After aspiration of the virus inoculum, a 0.6% agarose overlay (3 ml.) containing Eagle minimal essential media, trypsin (8 μg/ml.), and the appropriate drug dilution (final concentration of 1% DMSO) was added to the cell monolayer. Plates were incubated at 370° C. in a humidified atmosphere of 5% CO2 in air. After 48 hours, monolayers were fixed with glutaraldehyde, stained with 0.1% crystal violet and the plaques were counted. The percentage of plaque inhibition relative to the infected control (no drug) plates were calculated for each drug concentration and the 50% inhibitory concentration (IC50) was determined.

[1] = system: influenza A/Victoria virus; assay: Plaque reduction in MDCK cells, influenza A/Victoria
Method: as §1

[2] = biological target: influenza A/WSN virus transcriptase (Influenza A virus, UniProt P03427+P03430+P15659); assay: biochemical; conditions: 45 minutes at 31° C, 1% DMSO; read-out: IC50, concentration required to achieve 50% inhibition of influenza A/WSN virus transcriptase activity
[3] = biological target: influenza virus cleavage of cap 1 RNA (Influenza A virus, UniProt P03427+P15659); assay: Assay for cleavage of cap 1 AIMV RNA4 by influenza virus; type: biochemical; conditions: read-out: IC50, 50% inhibition of influenza virus cleavage of cap 1 RNA
MDCK cells = assay: Cell growth assay (MTT) in MDCK cells; type: cell-based, canine; conditions: Canis lupus familiaris, 2-3 days, read-out: IC50, concentration required to achieve a 50% reduction of optical density (cell growth)
Method: Effects of the pyridazine derivatives of the invention on cell growth were determined in MDCK cells in 96 well plates by a tetrazolium-based calorimetric method (R. Pauwels et al., J. Virol. Methods, 20, 309-321 (1988)). This assay detects the in situ reduction of 3-(4,5-dimethylthiazol-2-yl)-2,5-diphenyltetrazolium bromide (MTT) by viable cells. Approximately 1×10^4 cells were seeded per well and incubated with drug-containing growth media for 2-3 days (3-4 cell doublings). The drug concentration resulting in a reduction of optical density by 50% was determined.

influenza = assay: Potency against influenza (test not specified)
influenza B/Lee virus = assay: Plaque reduction in MDCK cells, influenza B/Lee; conditions: read-out: IC50, […], B/Lee, 48 hours
Method: as §1

[4] = MDCK, 48 h, read-out: IC50, […], A/WSN, MDCK cells, 48 hours
[5] = MDCK, 48 h, read-out: IC50, […], A/Victoria, MDCK cells, 48 hours
[6] = read-out: IC50, […], A/WSN, MDCK cells, 48 hours

Q: With CC1=NN(c2ccc(-c3nn[nH]n3)cc2)C(=O)C(=O)C1=O [Example 7, Sodium Salt of 2-(4-tetrazolylphenyl) 2,3,4,5-tetrahydro-6-methyl-pyridazine-3,4,5-trione] as the compound, how does the IC50 (influenza A/WSN virus; [4]) read?
A: 2 µM

Q: Which results are given for CC1=NN(c2ccc(C(=O)O)cc2C)C(=O)C(=O)C1=O [Example 1, 3-methyl-4-(6-methyl-3,4,5-trioxo-2H,3H,4H,5H-pyridazinyl)benzoic acid]?
A: IC50 [1, 5]: 90 µM; IC50 (influenza A/WSN virus; [4]): 50 µM; IC50 [2]: 0.1 µM; IC50 [3]: 0.2 µM; IC50 (MDCK cells): > 200 µM

Q: CC1=NN(c2ccc3[nH]nnc3c2)C(=O)C(=O)C1=O [Example 9, 5-benzotriazolyl-2,3,4,5-tetrahydro-6-methyl-pyridazine-3,4,5-trione] was tested. Which IC50 (influenza A/WSN virus; [4]) did it give?
A: 20 µM

Q: With CC1=NN(c2ccc3c(c2)S(=O)(=O)NC3=O)C(=O)C(=O)C1=O [6-(6-methyl-3,4,5-trioxo-2H,3H,4H,5H-pyridazinyl)-1,1-dioxo-1,2-dihydro-1λ^6-benz<d>isothiazol-3-one] as the compound, how does the potency against influenza (influenza) read?
A: significant potency

Q: For CC1=NN(c2ccc(C(=O)O)cc2C)C(=O)C(=O)C1=O [Example 2, Sodium Salt of 3-methyl-4-(6-methyl-3,4,5,-trioxo-2H,3H,4H,5H-pyridazinyl)benzoic acid], which IC50 (influenza A/WSN virus; [6]) is on record?
A: 100 µM

Q: And the IC50 (influenza B/Lee virus)?
A: > 200 µM

Q: For CC1=NN(c2ccc(S(N)(=O)=O)cc2)C(=O)C(=O)C1=O [Example 4, 4-(6-methyl-3,4,5-trioxo-2H,3H,4H,5H-pyridazinyl)benzene sulfonamide], which IC50 [1, 5] is on record?
A: 8 µM

Q: What about the IC50 (influenza A/WSN virus; [4]) of the same compound?
A: 8 µM

Q: And the IC50 [2]?
A: 1 µM

Q: What about the IC50 [3] of the same compound?
A: 2 µM

Q: And the IC50 (MDCK cells)?
A: > 100 µM

Q: For CC1=NN(c2ccc(C(N)=O)cc2)C(=O)C(=O)C1=O [4-(6-methyl-3,4,5-trioxo-2H,3H,4H,5H-pyridazinyl)benzenecarboxamide], which potency against influenza (influenza) is on record?
A: significant potency

Q: With CNS(=O)(=O)c1ccc(N2N=C(C)C(=O)C(=O)C2=O)cc1 [N-methyl-4-(6-methyl-3,4,5-trioxo-2H,3H,4H,5H-pyridazinyl)benzenesulfonamide] as the compound, how does the potency against influenza (influenza) read?
A: significant potency

Q: How did the potency against influenza (influenza) turn out when CC1=NN(c2ccc(S(=O)(=O)Nc3cccnc3)cc2)C(=O)C(=O)C1=O [N-(3-pyridyl)-4-(6-methyl-3,4,5-trioxo-2H,3H,4H,5H-pyridazinyl)benzenesulfonamide] was run?
A: significant potency

Q: CC1=NN(c2ccc(S(=O)(=O)Nc3ccccc3)cc2)C(=O)C(=O)C1=O [N-phenyl-4-(6-methyl-3,4,5-trioxo-2H,3H,4H,5H-pyridazinyl)benzenesulfonamide] was tested. Which potency against influenza (influenza) did it give?
A: significant potency

Q: For CNS(=O)(=O)c1ccc(Cl)c(N2N=C(C)C(=O)C(=O)C2=O)c1 [N-methyl-4-chloro-3-(6-methyl-3,4,5-trioxo-2H,3H,4H,5H-pyridazinyl)benzenesulfonamide], which potency against influenza (influenza) is on record?
A: significant potency

Q: Which potency against influenza (influenza) does the source give for CC(=O)NS(=O)(=O)c1ccc(N2N=C(C)C(=O)C(=O)C2=O)cc1 [N-acetyl-4-(6-methyl-3,4,S-trioxo-2H,3H,4H,5H-pyridazinyl)benzenesulfonamide] here?
A: significant potency

Q: With CC1=NN(c2ccc(C(=O)O)c(Cl)c2)C(=O)C(=O)C1=O [Example 3, 2-chloro-4-(6-methyl-3,4,5-trioxo-2H,3H,4H,5H-pyridazinyl)benzoic acid] as the compound, how does the IC50 [1, 5] read?
A: 50 µM

Q: And the IC50 (influenza A/WSN virus; [4])?
A: 16 µM

Q: With CC1=NN(c2ccc(-c3nnn[nH]3)cc2)C(=O)C(=O)C1=O [Example 6, 2-(4-tetrazolylphenyl) 2,3,4,5-tetrahydro-6-methyl-pyridazine-3,4,5-trione] as the compound, how does the IC50 [1, 5] read?
A: 2 µM

Q: What about the IC50 (influenza A/WSN virus; [4]) of the same compound?
A: 1 µM

Q: What about the IC50 [2] of the same compound?
A: 0.2 µM

Q: With CC1=NN(c2ccc3[nH]ncc3c2)C(=O)C(=O)C1=O [Example 8, 5-indazolyl-2,3,4,5-tetrahydro-6-methyl-pyridazine-3,4,5-trione] as the compound, how does the IC50 (influenza A/WSN virus; [4]) read?
A: 50 µM

Q: For CC1=NN(c2ccc(S(N)(=O)=O)cc2)C(=O)C(=O)C1=O [Example 5, Sodium Salt of 4-(6-methyl-3,4,5-trioxo-2H,3H,4H,5H-pyridazinyl)benzoic sulfonamide], which IC50 ([1]; read-out: IC50, […], A/Victoria, MDCK cells, 48 hours) is on record?
A: 11 µM

Q: And the IC50 (influenza A/WSN virus; [6])?
A: 8 µM

Q: What about the IC50 (influenza B/Lee virus) of the same compound?
A: 30 µM

Q: How did the potency against influenza (influenza) turn out when CC1=NN(c2ccc(C)c(S(N)(=O)=O)c2)C(=O)C(=O)C1=O [2-methyl-5-(6-methyl-3,4,5-trioxo-2H,3H,4H,5H-pyridazinyl)benzenesulfonamide] was run?
A: significant potency
